Assay results published in patent US6914045B2, “Glycopeptide antibiotics” (Wyeth Holdings Corporation, priority 2001, dated 2005).
In brackets after ≈: the same amount, converted by molar mass. Numbered stars: 1 amine (or outer) side, 2 acyl side, 3 side chain; on linkers, the order of the positions; unused ones are H or OH. Square brackets hold non-standard residues; d marks the D form. Peptide text beside a SMILES is read from it. * marks the point of attachment. ξ: configuration not given here. X1 = N=C1NCC(C(O)C(N[*:1])C(=O)[*:2])N1C1OC(CO)C(O)C(O)C1O; ξEnduracididine(βξ-OH,4'ξ) = N=C1NCC(C(O)C(N)C(=O)O)N1; ξPhe(4-Cl,βξ-Me) = CC(c1ccc(Cl)cc1)C(N)C(=O)O; X2 = OCC1OC(OC2C(CO)OC(*)C(O)C2O)C(O)C(O)C1O

Assays:
Assay in all cases: in vitro antibacterial evaluation, MIC by broth dilution
Format in all cases: cell-based
[1] = tested on: Enterococcus sp.; settings: broth dilution, 18 hours at 35° C.
Outline: (§1)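 Following National Committee for Clinical Laboratory Standards recommendations (M7-A2), susceptibility was measured by dilution in Muller-Hinton II […]. Bacteria were seeded at 5×10^5 CFU/mL against compound concentrations from 64 down to 0.06 μg/mL.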

[2] = tested on: Escherichia coli; settings: 18 hours at 35° C.
Outline: as §1

[3] = tested on: Staphylococcus sp.; settings: broth dilution, 18 hours at 35° C.
Outline: as §1

[4] = tested on: Streptococcus sp.; settings: broth dilution, 18 hours at 35° C.
Outline: as §1

`CC(c1ccc(Cl)cc1)C1NC(=O)CNC(=O)C(CO)NC(=O)C(C(O)C2CNC(=N)N2C2OC(CO)C(O)C(O)C2O)NC(=O)C(C(O)C2CNC(=N)N2)NC(=O)C(Cc2ccc(OC3OC(CO)C(OC4OC(CO)C(O)C(O)C4O)C(O)C3O)cc2)NC1=O` (stereo not drawn) [Example 262a, Cyclo[glycyl-4-chloro-β-methylphenylalanyl-O-(4-O-hexopyranosylhexopyranosyl)tyrosyl-3-(2-iminoimidazolidin-4-yl)seryl-3-(3-hexoopyranosyl-2-iminoimidazolidin-4-yl)serylseryl]] (cyclo(G[ξPhe(4-Cl,βξ-Me)]Y(X2)[ξEnduracididine(βξ-OH,4'ξ)][X1]S); configuration not given here) was tested, and the “MIC Enterococcus avium (GC 4558)” value ([1]; Enterococcus avium (GC 4558)) was over 128 µg/mL, the “MIC Enterococcus faecalis (ATCC 29212)” value ([1]; Enterococcus faecalis (ATCC 29212)) was over 128 µg/mL and the “MIC Enterococcus faecalis (GC 4553)” value ([1]; Enterococcus faecalis (GC 4553)) was over 128 µg/mL. The “MIC Enterococcus faecalis (GC 4554)” value ([1]; Enterococcus faecalis (GC 4554)) was over 128 µg/mL, the “MIC Enterococcus faecium (GC 2243)” value ([1]; Enterococcus faecium (GC 2243)) was over 128 µg/mL and the “MIC Enterococcus faecium (GC 4556)” value ([1]; Enterococcus faecium (GC 4556)) was over 128 µg/mL. The “MIC Enterococcus faecium (GC 4557)” value ([1]; Enterococcus faecium (GC 4557)) was over 128 µg/mL, the “MIC Enterococcus faecalis (ATCC 29212)” value ([1]; strain ATCC 29212) was over 128 µg/mL and the “MIC Enterococcus faecalis (GC 2242)” value ([1]; strain GC 2242) was over 128 µg/mL. The “MIC Enterococcus faecium (GC 2243)” value ([1]; strain GC 2243) was over 128 µg/mL, the “MIC Enterococcus faecalis (GC 4552)” value ([1]; strain GC 4552) was over 128 µg/mL and the “MIC Enterococcus faecalis (GC 4553)” value ([1]; strain GC 4553) was over 128 µg/mL. The “MIC Enterococcus faecalis (GC 4554)” value ([1]; strain GC 4554) was over 128 µg/mL, the “MIC Enterococcus faecium (GC 4556)” value ([1]; strain GC 4556) was over 128 µg/mL and the “MIC Enterococcus faecium (GC 4557)” value ([1]; strain GC 4557) was over 128 µg/mL. For the same compound, the “MIC Enterococcus avium (GC 4558)” value ([1]; strain GC 4558) was over 128 µg/mL, the “MIC Escherichia coli (ATCC 25922)” value ([2]; Escherichia coli (ATCC 25922)) was over 128 µg/mL and the “MIC Escherichia coli (GC 4559)” value ([2]; Escherichia coli (GC 4559)) was over 128 µg/mL. The “MIC Escherichia coli (GC 4560)” value ([2]; Escherichia coli (GC 4560)) was 16 µg/mL (≈ 12 µM), the “MIC Coagulase Negative Staphylococcus (GC 4547)” value [3] was 64 µg/mL (≈ 48.1 µM) and the “MIC Coagulase Negative Staphylococcus (GC 4548)” value [3] was 64 µg/mL (≈ 48.1 µM). The “MIC Coagulase Negative Staphylococcus (GC 4549)” value [3] was 16 µg/mL (≈ 12 µM), the “MIC Coagulase Negative Staphylococcus (GC 4551)” value [3] was 128 µg/mL (≈ 96.3 µM) and the “MIC Staphylococcus aureus (ATCC 29213)” value [3] was 64 µg/mL (≈ 48.1 µM). The “MIC Staphylococcus aureus (GC 1131)” value [3] was 128 µg/mL (≈ 96.3 µM), the “MIC Staphylococcus aureus (GC 4541)” value [3] was 64 µg/mL (≈ 48.1 µM) and the “MIC Staphylococcus aureus (GC 4542)” value [3] was over 128 µg/mL. The “MIC Staphylococcus aureus (GC 4544)” value [3] was 64 µg/mL (≈ 48.1 µM), the “MIC Staphylococcus aureus (GC 4545)” value [3] was 64 µg/mL (≈ 48.1 µM) and the “MIC Staphylococcus aureus-SMITH (GC 4543)” value [3] was 64 µg/mL (≈ 48.1 µM). For the same compound, the “MIC Staphylococcus haemolyticus (GC 4546)” value [3] was 64 µg/mL (≈ 48.1 µM), the “MIC Staphylococcus aureus (ATCC 29213)” value ([3]; strain ATCC 29213) was 64 µg/mL (≈ 48.1 µM) and the “MIC Staphylococcus aureus (GC 1131)” value ([3]; strain GC 1131) was 128 µg/mL (≈ 96.3 µM). The “MIC Staphylococcus aureus (GC 4541)” value ([3]; strain GC 4541) was 64 µg/mL (≈ 48.1 µM), the “MIC Staphylococcus aureus (GC 4542)” value ([3]; strain GC 4542) was over 128 µg/mL and the “MIC Staphylococcus aureus (GC 4544)” value ([3]; strain GC 4544) was 64 µg/mL (≈ 48.1 µM). The “MIC Staphylococcus aureus (GC 4545)” value ([3]; strain GC 4545) was 64 µg/mL (≈ 48.1 µM), the “MIC Staphylococcus haemolyticus (GC 4546)” value ([3]; strain GC 4546) was 64 µg/mL (≈ 48.1 µM) and the “MIC Coagulase Negative Staphylococcus (GC 4547)” value ([3]; strain GC 4547) was 64 µg/mL (≈ 48.1 µM). For the same compound, the “MIC Coagulase Negative Staphylococcus (GC 4548)” value ([3]; strain GC 4548) was 64 µg/mL (≈ 48.1 µM), the “MIC Coagulase Negative Staphylococcus (GC 4549)” value ([3]; strain GC 4549) was 16 µg/mL (≈ 12 µM) and the “MIC Coagulase Negative Staphylococcus (GC 4551)” value ([3]; strain GC 4551) was 128 µg/mL (≈ 96.3 µM). The “MIC Staphylococcus aureus-SMITH (GC 4543)” value ([3]; strain SMITH GC 4543) was 64 µg/mL (≈ 48.1 µM), the “MIC Streptococcus agalactiae (GC 4564)” value ([4]; strain GC 4564) was 32 µg/mL (≈ 24.1 µM) and the “MIC Streptococcus pyogenes (ID-3187)” value ([4]; strain ID-3187) was 32 µg/mL (≈ 24.1 µM).
